“Also recorded” adds a separate entry of the source.
Tests used:
[1] = tested on: Shh expression in CAPAN-1 cells; assay: Inhibition of Shh expression in CAPAN-1 cells, Q-RT-PCR; format: cell-based, human; conditions: 72 h
Text: (§1) NIH3T3-E1 fibroblasts were obtained from ATCC (Manassas, VA) and cultured, as previously described. CAPAN-1 and PANC-1 human pancreatic cancer cells were obtained from ATCC and cultured in Dulbecco’s Modified Eagle Medium (DMEM) containing 10% heat-inactivated fetal bovine serum (FBS) (Hyclone Laboratories, Logan, UT, USA) and antibiotics, as previously described. The human lung cancer cell lines A549 and H2030 were obtained from ATCC and cultured in RPMI-1640 containing 10% FBS. The human hepatoma cell line HepG2 was obtained from ATCC and cultured in DMEM containing 10% FBS. Mouse embryonic fibroblasts (MEFs) from suppressor of fused (Sufu) null mice (Sufu^−/−) were provided by Dr. Philip Beachy of Stanford University and cultured in DMEM containing 10% FBS. Gant61, SB431542 and vismodegib (GDC0449) were obtained from Cayman Chemical, HPI-1 was obtained from Abcam. For experiments, cells were treated in a medium containing 5% FBS.
(§2) Total RNA was extracted with the RNeasy Plus Mini Kit from Qiagen, according to the manufacturer’s instructions. One microgram of RNA was reverse-transcribed using an iScript Reverse Transcription Supermix from Bio-Rad, to make single-stranded cDNA. The cDNAs were then mixed with Qi SYBR Green Supermix (Bio-Rad, Hercules, CA, USA) for quantitative RT-PCR assay using a Bio-Rad I-cycler IQ quantitative thermocycler. All PCR samples were prepared in triplicate wells in a 96-well plate. […] Fold changes in gene expression were calculated using the ΔΔCt method. […]
(§3) Figure 4 Inhibition of Gli and Shh expression in (a) PDAC (PANC-1) and (b,c) human lung cancer cells (A549 and H2030, respectively) by Oxy186. Cells were treated with the compounds as indicated in DMEM or RPMI 1640 containing 5% FBS for (a) 48 or (b,c) 72 hours, then RNA was extracted and analyzed by Q-RT-PCR for the expression of Gli1 and normalized to GAPDH expression. (d) CAPAN-1 cells were treated with the compounds, as indicated, in DMEM containing 5% FBS for 72 h, then RNA was extracted and analyzed by Q-RT-PCR for the expression of Shh and normalized to GAPDH expression. […]

[2] = tested on: Gli1 expression in PANC-1 cells; assay: Inhibition of baseline Gli1 expression in PANC-1 cells, Q-RT-PCR; format: cell-based, human; conditions: 48 h
Text: as §1, §2, §3

[3] = tested on: Gli1 expression in H2030 cells; assay: Inhibition of Gli1 expression in H2030 cells, Q-RT-PCR; format: cell-based, human; conditions: 72 h
Text: as §1, §2, §3

A549 cells = assay: Cell counting assay, A549; format: cell-based, human; conditions: 96 h
Description: (§4) A549 and H2030 cells cultured in 12-well plates at 20% confluence were treated with Oxy186, HPI-1, Gant61, or GDC0449 for 96 hours and then trypsinized and suspended in fresh medium. An aliquot of cell suspension was applied to a hemocytometer and counted under a microscope.
(§5) Figure 6 Inhibition of human pancreatic and lung cancer cell proliferation by Oxy186. (a,c) A549, (b) and (d) H2030, (e) PANC-1, and (f) CAPAN-1 cells were treated with the compounds as indicated in RPMI 1640 (a–d) or DMEM (e,f) containing 5% FBS for 96 h and then were trypsinized and counted. Data from a representative experiment are reported as the mean of triplicate determinations ± SD (* p < 0.05 vs. Control; ** p < 0.01 vs. control).

CAPAN-1 cells = assay: Cell counting assay, CAPAN-1; format: cell-based, human; conditions: 96 h
Description: as §4, §5

[4] = tested on: Gli1 expression in A549 cells; assay: Inhibition of Gli1 expression in A549 cells, Q-RT-PCR; format: cell-based, human; conditions: 72 h
Text: as §1, §2, §3

PANC-1 cells = assay: Cell counting assay, PANC-1; format: cell-based, human; conditions: 96 h
Description: as §4, §5

H2030 cells = assay: Cell counting assay, H2030; format: cell-based, human; conditions: 96 h
Description: as §4, §5

[5] = Metabolic stability in mouse liver microsomes; format: in vitro ADME
LXR target gene Abca1 = assay: Induction of LXR target gene Abca1 in NIH3T3 cells, Q-RT-PCR; format: cell-based, mouse
Description: (§6) Total RNA was extracted with the RNeasy Plus Mini Kit from Qiagen, according to the manufacturer’s instructions. One microgram of RNA was reverse-transcribed using an iScript Reverse Transcription Supermix from Bio-Rad, to make single-stranded cDNA. The cDNAs were then mixed with Qi SYBR Green Supermix (Bio-Rad, Hercules, CA, USA) for quantitative RT-PCR assay using a Bio-Rad I-cycler IQ quantitative thermocycler. All PCR samples were prepared in triplicate wells in a 96-well plate. After 40 cycles of PCR, melt curves were examined in order to ensure primer specificity. Fold changes in gene expression were calculated using the ΔΔCt method. Primers used for mouse were as follows: Oaz1 (5’-CCACTGCTTCGCCAGAGAG-3’) and (5’-CCCGGACCCAGGTTACTA-3’), Gli1 (5’-[…]-3’ and 5’-[…]-3’), Ptch1 (5’-CCATCGGCGACAAGAACC-3’ and 5’-[…]-3’), Hip (5’-[…]-3’ and 5’-[…]-3’), and Abca1 (5’-[…]-3’ and 5’-[…]-3’). Primers used for human were as follows: SREBP1c (5’-CGCTCCTCCATCAATGACA-3’ and 5’-[…]-3’), GAPDH (5’-[…]-3’ and 5’-[…]-3’), SHH (5’-CGGAGCGAGGAAGGGAAAG-3’) and (5’-[…]-3’), and GLI1 (5’-GAAGCCGAGCCGAGTATC-3’ and 5’-[…]-3’).
Figure 7 Induction of LXR target gene expression by Oxy186 and LXR agonist TO901317 (TO). (a) NIH3T3 cells and (b) HepG2 cells were treated with DMEM containing 5% FBS in the presence or absence of TO (2 µM) or Oxy186 (10 µM). […] Data from a representative experiment are reported as the mean of triplicate determinations ± SD (** p < 0.01 vs. control).

[6] = Pharmacokinetic study in mice, single oral dose; format: in vivo, balb/c mice; conditions: Figure 8b drug-like properties summary
Description: In an initial assessment of the drug-like properties of Oxy186, we performed a pharmacokinetic (PK) study in mice. Oxy186, formulated in 4% ethanol, 15% DMSO, and 81% corn oil, was administered to balb/c mice by oral gavage as a single dose of 50 mg/kg.
Figure 8 Drug-like properties of Oxy186. (a) A single dose of Oxy186 at 50 mg/kg, formulated in 4% ethanol/ 15% DMSO/ 81% corn oil, was administered to balb/c mice by oral gavage. Plasma samples were taken at 10 min, 30 min, 1, 2, 4, 6, 8, and 24 h, followed by LC/MS analysis of the plasma. (b) Evolution of Oxy186 from parent compound Oxy16 and their drug-like properties.

[7] = Metabolic stability in human liver microsomes; format: in vitro ADME
[8] = tested on: Hh target gene Gli1 expression in NIH3T3-E1 cells; assay: Inhibition of CAPAN-1 conditioned medium (ligand)-induced Gli1 mRNA expression, Q-RT-PCR; format: cell-based; conditions: NIH3T3 cells activated by CAPAN-1 CM Hh ligands, 72 h
Text: as §1
Growth medium in confluent […] tissue culture plates of CAPAN-1 cells were replaced with 10 ml of fresh growth medium and cells were incubated for a total of 7 days. Conditioned medium (CM), containing Shh and Ihh, was collected and spun down to remove any detached cells and debris, aliquoted, and stored frozen at −80 °C [37].
as §2, with “thermocycler.” for “thermocycler. All PCR samples were prepared in triplicate wells in a 96-well plate.”
Figure 3 Inhibition of ligand-induced Hedgehog signaling. […] After 72 h, RNA was extracted and analyzed by Q-RT-PCR for the expression of Hh target genes Gli1 (a,b,d) and Ptch1 (c), and normalized to Oaz1 expression. […] Luciferase activity was measured and normalized to the Renilla luciferase activity. […]

LXR target gene SREBP1c = assay: Induction of LXR target gene SREBP1c in HepG2 cells, Q-RT-PCR; format: cell-based, human; conditions: 2 µM, 72 h
Description: as §6
Figure 7 Induction of LXR target gene expression by Oxy186 and LXR agonist TO901317 (TO). (a) NIH3T3 cells and (b) HepG2 cells were treated with DMEM containing 5% FBS in the presence or absence of TO (2 µM) or Oxy186 (10 µM). […]

CS(=O)(=O)c1ccc(C(=O)Nc2ccc(Cl)c(-c3ccccn3)c2)c(Cl)c1 [GDC0449, vismodegib]
Inhibition of Shh expression [1]: inhibitory effects on Shh expression in CAPAN-1 cells, but to a lesser extent | Inhibition of high baseline expression of Gli1 ([2]; 10 µM): did not have a similar effect | Inhibition of expression of Gli1 ([3]; 10 µM): significantly inhibited | Inhibition of cell proliferation (A549 cells; 10 µM): not | Anti-proliferation effect (CAPAN-1 cells): marginally effective | Inhibition of expression of Gli1 ([4]; 10 µM): significantly inhibited

CN(C)c1ccccc1CN1CCCN(Cc2ccccc2N(C)C)C1c1ccncc1 [Gant61]
Inhibition of Shh expression [1]: inhibitory effects on Shh expression in CAPAN-1 cells, but to a lesser extent; also recorded: significant inhibition | Anti-proliferation effect (PANC-1 cells): significant anti-proliferation effects | Inhibition of high baseline expression of Gli1 ([2]; 20 µM): significantly inhibited | Anti-proliferative effect (H2030 cells): significant anti-proliferative effect | Inhibition of expression of Gli1 ([3]; 20 µM): significantly inhibited | Inhibition of cell proliferation (A549 cells; 20 µM): significantly inhibited | Anti-proliferation effect (CAPAN-1 cells): significant anti-proliferation effects | Inhibition of expression of Gli1 ([4]; 20 µM): significantly inhibited

CC(C)CCC(O)C(C)(O)C1CCC2C3CC=C4CC(O)CCC4(C)C3CCC21C [Oxy16, 20-α, 22(R)-dihydroxycholesterol, reference compound]
remaining at 1 h ([5]; 60 min, read-out: MLM, % Remaining after 60 min): 5% | half-life ([5]; read-out: MLM, Half-Life): 14 min | LXR agonism (Figure 8b summary) (LXR target gene Abca1; Figure 8b drug-like properties summary): Stronger LXR agonist | In vivo availability / stability (Figure 8b summary) [6]: Unstable in vivo | HLM, Half-Life [7]: 15 min | remaining at 1 h ([7]; 60 min, read-out: HLM, % Remaining after 60 min): 6% | half-life ([7]; human, liver microsomes, read-out: HLM, Half-Life): < 15 min | IC50 [8]: > 5 µM

O=S(=O)(c1ccccc1)N(CC(F)(F)F)c1ccc(C(O)(C(F)(F)F)C(F)(F)F)cc1 [TO901317, reference compound]
Induction of expression of SREBP1c (LXR target gene SREBP1c): significantly induced | Induction of expression of LXR target gene Abca1 (LXR target gene Abca1; NIH3T3-E1 cells, 2 µM, 72 h): significantly induced
